Laboratory results reported in paper PMC7649969, “Pyrazolyl-pyrimidones inhibit the function of human solute carrier protein SLC11A2 (hDMT1) by metal chelation” (RSC Medicinal Chemistry, 2020).
Read-outs that look alike come from different tables or passages of the source.

Experiments:
[1] = target: T1, hDMT1 (SLC11A2) (Homo sapiens, UniProt P49281); assay: radioactive iron uptake assay in HEK293 cells stably overexpressing hDMT1; format: cell-based; conditions: for mode of inhibition: 55Fe2+ uptake kinetics; for Ki: [Fe^2+] → 0, Dixon plot analysis, read-out: inhibition constant Ki; for Ligand efficiency: from IC50 of radioactive iron uptake in HEK293-hDMT1; for IC50: radioactive iron 1 μM, 15 min incubation, extracellular pH 5.5, HEK293 stably overexpressing hDMT1; for inhibition constant Kii: saturating iron, 1/Vmax vs [I]
T1 construct: DsRED; expressed in transfected cells
T1 sequence (P49281 1-568): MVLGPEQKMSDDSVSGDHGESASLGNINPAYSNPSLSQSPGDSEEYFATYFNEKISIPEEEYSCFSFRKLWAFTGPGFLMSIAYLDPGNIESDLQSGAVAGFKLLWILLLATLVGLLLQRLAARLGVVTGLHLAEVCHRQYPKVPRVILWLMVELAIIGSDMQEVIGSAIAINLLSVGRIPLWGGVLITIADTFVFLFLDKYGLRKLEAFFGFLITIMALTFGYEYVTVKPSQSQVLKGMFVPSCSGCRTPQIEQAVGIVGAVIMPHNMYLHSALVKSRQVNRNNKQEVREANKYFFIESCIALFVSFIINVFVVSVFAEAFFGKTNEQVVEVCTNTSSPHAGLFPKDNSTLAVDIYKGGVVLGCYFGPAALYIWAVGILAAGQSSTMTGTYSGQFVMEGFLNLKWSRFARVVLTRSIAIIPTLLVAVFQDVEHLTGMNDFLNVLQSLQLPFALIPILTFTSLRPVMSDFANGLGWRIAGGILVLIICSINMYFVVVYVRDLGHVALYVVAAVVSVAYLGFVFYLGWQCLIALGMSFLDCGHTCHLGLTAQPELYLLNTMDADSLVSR

[2] = acid-base titration with NaOH; format: physicochemical; conditions: Milli-Q water with 10% DMSO, ~2 mM compound
Method: Fig. 6 (a) Acid–base titration of 3, 5, 13 and neutral and basic forms of 3, 5, 13. (20 μmol of compound in 10 mL (10% DMSO, ∼2 mM), 3 and 5 were acidified with HCl (50 μmol)). (b) Acid-base equilibria for inhibitors 3, 5 and 13 highlighting potentially metal chelating nitrogen atoms in red. (c) TMAP of our inhibitors combined with 169 pyrazolyl-pyrimidones and 1717 pyrazolyl-pyridines found in ChEMBL, color coded by source: cyan = pyrazolyl-pyridines from ChEMBL, blue = pyrazolyl-pyrimidones from ChEMBL, red = this work. Insert: Close-up view around pyrazolyl-pyrimidones color-coded by target class: red = transporter, cyan = enzyme, magenta = unclassified protein, grey = unclassified target. The interactive TMAP including further color-codes (target classes, QED, etc.) is accessible at:; http://tm.gdb.tools/dmt1_inhibitors/pyrimidones_pyridines/ […]
Milli-Q water, 1 mL DMSO and 0.5 mL HCl 0.1 M (Final concentration of 2 mM). Compound
13 (HCl salt, 200 µL, 0.1 M in DMSO) was dissolved in 0.8 mL DMSO and […] Milli-Q
water. Then, a solution of 0.1 M NaOH was added by steps of 2 µL with a Dosimat plus
(Metrohm, Zofingen, Switzerland) and pH was measured using a 692 pH/ion meter (Metrohm).

Compound | mode of inhibition [1] | Ki [1] [nM] | Ligand efficiency [1] | IC50 [1] [nM] | potency weaker than originally reported value based on a calcein assay ([1]; radioactive iron uptake vs reported calcein assay) [fold] | inhibition constant Kii [1] [µM] | pKa ([2]; read-out: pKa1) | pKa ([2]; read-out: pKa2) | improvement of IC50 over initial inhibitor 5 ([1]; radioactive iron uptake) [fold]
N=C(N)SCc1cccc2c1oc1c(CSC(=N)N)cccc12 [Compound 1, reference compound] | competitive inhibition | 1400 | 0.35 | 1760 ± 60 | 5 | 15.6 |  |  | 
Cc1cc(O)nc(-n2nc(C)cc2C)n1 [Compound 5] |  |  |  | 13100 ± 700 |  |  | 3.6 | 6.5 | 
Cc1nn(-c2ccccn2)c(O)c1C(=O)Nc1cccc(C(F)(F)F)c1 [Compound 3, reference compound] |  |  |  |  |  |  | 3.3 | 6.7 | 
Cc1cc(=O)[nH]c(-n2nc3c(c2C)CCCC3)n1 [Compound 13] | non-competitive inhibitor | 2000 | 0.45 | 1100 ± 10 |  | 1.7 | 3.3 | 7 | 10
